From article PMC10746280, “Bacterial efflux pump modulators prevent bacterial growth in macrophages and under broth conditions that mimic the host environment” (mBio, 2023)

What was measured:
RAW 264.7 macrophages = assay: SAFIRE macrophage assay: host toxicity (adherent macrophage count, morphology); assay type: cell-based
In short: (§1)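 Compound or DMSO added 2 h after gentamicin-protected infection (MOI ~30, sifB::gfp SL1344) of RAW 264.7 cells and left to 18 h. Fixed cells imaged; intracellular GFP area per macrophage gives bacterial load, while retained adherent MitoTracker Red-stained macrophages define host toxicity.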

[1] = test system: S. Typhimurium SL1344 (sifB::gfp) in RAW 264.7 macrophages; assay: SAFIRE macrophage assay: intracellular bacterial load (GFP signal within macrophages); assay type: cell-based, Salmonella enterica serotype Typhimurium; details: for 5 uM Avg Antibacterial Score / 25 uM Avg Antibacterial Score: 'Toxic' given instead of a score; for IC50: Salmonella enterica, TYPHIMURIUM, RAW264.7, read-out: SAFIRE IC50
In short: as §1

Structure (SMILES)	5 uM Avg Cell # Score (RAW 264.7 macrophages)	25 uM Avg Cell # Score (RAW 264.7 macrophages)	5 uM Avg Antibacterial Score [1]	25 uM Avg Antibacterial Score [1]	IC50 [1] [nM]
OC(COc1ccc(Cl)c(Cl)c1)CN1CCC(N2CCOCC2)CC1 (stereo not shown) [CU185]	120	125	87	76	–
OC(COc1cccc2ncccc12)CN1CCC(Nc2nccc(C(F)(F)F)n2)CC1 (stereo not shown) [CU186]	121	72	101	9	–
NC1CCN(CC(O)COc2cccc(Cl)c2)CC1 (stereo not shown) [CU188]	110	111	33	25	–
NC1CCN(CC(O)COc2ccccc2Cl)CC1 (stereo not shown) [CU189]	107	109	61	49	–
NC1CCN(CC(O)COc2ccc(Cl)cc2Cl)CC1 (stereo not shown) [CU190]	101	87	24	21	–
NC1CCN(CC(O)COc2cc(Cl)cc(Cl)c2)CC1 (stereo not shown) [CU191]	100	15	14	Toxic	–
NC1CCN(CC(O)COc2c(Cl)cccc2Cl)CC1 (stereo not shown) [CU192]	96	92	52	30	6.9
N[C@@H]1CCN(CC(O)COc2ccc(Cl)c(Cl)c2)C1 (stereo partly shown) [CU193]	100	98	28	14	11.5
N[C@H]1CCN(CC(O)COc2ccc(Cl)c(Cl)c2)C1 (stereo partly shown) [CU194]	100	103	18	12	–
O=C1OC(COc2ccc(Cl)c(Cl)c2)CN1c1ccc(N2CCOCC2)cc1 (stereo not shown) [CU195]	114	82	107	103	–
O=C(O)c1cn(C2CC2)c2cc(N3CCN(CC(O)COc4ccc(Cl)c(Cl)c4)CC3)c(F)cc2c1=O (stereo not shown) [CU196]	103	13	86	Toxic	–
N=C(N)NC1CCN(CC(O)COc2ccc(Cl)c(Cl)c2)C1 (stereo not shown) [CU197]	109	117	103	87	–
OC(CNC1CCNCC1)COc1ccc(Cl)cc1 (stereo not shown) [CU198]	110	110	83	34	–
OC(CNC1CCNCC1)COc1cccc(Cl)c1 (stereo not shown) [CU199]	105	115	83	55	–
OC(CNC1CCNCC1)COc1ccccc1Cl (stereo not shown) [CU200]	99	108	92	65	–
OC(CNC1CCNCC1)COc1ccc(Cl)cc1Cl (stereo not shown) [CU201]	109	102	44	13	–
OC(CNC1CCNCC1)COc1cc(Cl)cc(Cl)c1 (stereo not shown) [CU202]	100	95	34	11	–
N[C@@H]1CCN(CC(O)COc2cc(Cl)cc(Cl)c2)C1 (stereo partly shown) [CU203]	98	106	33	9	–
N[C@H]1CCN(CC(O)COc2cc(Cl)cc(Cl)c2)C1 (stereo partly shown) [CU204]	93	101	28	8.51	–
NCC1CCN(CC(O)COc2ccc(Cl)c(Cl)c2)CC1 (stereo not shown) [CU205]	131	13	12	Toxic	–
NCC1CCN(CC(O)COc2ccc(Cl)c(Cl)c2)C1 (stereo not shown) [CU206]	124	87	25	12	–
c1ccc2c(CN3CCNCC3)cccc2c1 [CU207]	113	121	98	59	–
NCC1CCN(CC(O)COc2cc(Cl)cc(Cl)c2)CC1 (stereo not shown) [CU208]	167	15	20	Toxic	–
